Experimental findings from US20150218164A1, “SUBSTITUTED NAPHTHYRIDINEDIONE DERIVATIVES AS HIV INTEGRASE INHIBITORS” (MERCK SHARP & DOHME CORP., priority 2012, published 2015) are described below.

One assay concerns HIV-1 (NL4-3 strain). The experiment in a line: Assay for inhibition of HIV replication (MT4-gag-GFP reporter cells, wild type cell assay). In kind it is cell-based. As to conditions: 50% NHS; MT4-GFP cells infected with HIV-1 NL4-3; infected cells at 48 h / 24 h; read-out: Wild Type Cell Assay IP (% NHS). The procedure:
This assay is a kinetic assay that employs a reporter cell line (MT4-gag-GFP) to quantify the number of new cells infected in each round of replication. Briefly, MT4-GFP cells (250,000 cells/ml) were bulk-infected with HIV-1 (NL4-3 strain) at low multiplicity of infection (MOI) in RPMI+10% FBS for 24 hours. Cells were then washed once in RPMI+10% FBS and resuspended RPMI+10% or 50% normal human serum (NHS). Test compounds were serial-diluted in DMSO on ECHO. The infected MT4-GFP cells were added to a 384-well poly-D-lysine coated black plate with clear bottom in which the diluted test compounds were placed. The cells were seeded at 8,000 cells per well and the final DMSO concentration was 0.4%. The infected cells (Green GFP cells) were quantified at both 24 and 48 hours post incubation using Acumen eX3. Viral reproductive ratio (R0) was determined using the number of infected cells at 48 hours divided by the number of infected cells at 24 hours. Percent viral growth inhibition was calculated by [1−(R−Rtripledrug)/(RDMSO−Rtripledrug)]*100. Compound potency IP or IC50 was determined by a 4-parameter dose response curve analysis.
Turning to `CSCC12CC1CCC21NC(=O)c2c3c(c(O)c(=O)n21)C(=O)N(Cc1ccc(F)c(Cl)c1)CC3` (stereo not shown) [Compound 17], the IC50 turned out to be 28 nM.

The same assay, now with this note: Human immunodeficiency virus 1, NL43, 10% NHS; MT4-GFP cells infected with HIV-1 NL4-3; infected cells at 48 h / 24 h; read-out: Wild Type Cell Assay IP (% NHS).
As to `O=C1c2c(c3n(c(=O)c2O)[C@@]2(CC[C@H]4C[C@H]42)N(CC(F)CO)C3=O)CCN1Cc1ccc(F)c(Cl)c1` (single isomer, unassigned) [Compound 5], the IC50 turned out to be 27 nM.

As to `O=C1c2c(c3n(c(=O)c2O)[C@@]2(CC[C@H]4C[C@H]42)N(CC(O)CF)C3=O)CCN1Cc1ccc(F)c(Cl)c1` (single isomer, unassigned) [Compound 4], the IC50 came out at 7.5 nM.

The assay is the same for the next values; noted with them: Human immunodeficiency virus 1, NL43, 50% NHS; MT4-GFP cells infected with HIV-1 NL4-3; infected cells at 48 h / 24 h; read-out: Wild Type Cell Assay IP (% NHS).
As for `C[C@@H](CN1C(=O)c2c3c(c(O)c(=O)n2[C@@]12CC[C@H]1C[C@H]12)C(=O)N(Cc1ccc(F)c(Cl)c1)CC3)OC(=O)CN(C)C` [Compound 13], the IC50 was determined as 69 nM.

For the molecule `CC(C)[C@H](N)C(=O)O[C@@H](C)CN1C(=O)c2c3c(c(O)c(=O)n2[C@@]12CC[C@H]1C[C@H]12)C(=O)N(Cc1ccc(F)c(Cl)c1)CC3` [Compound 12], the IC50 was found to be 54 nM.

`CC(O)CCN1C(=O)c2c3c(c(O)c(=O)n2[C@@]12CC[C@H]1C[C@H]12)C(=O)N(Cc1ccc(F)c(Cl)c1)CC3` (single isomer, unassigned) [Compound 3]: the IC50 was found to be 32 nM.

For `CSCC[C@H](N)C(=O)O[C@@H](C)CN1C(=O)c2c3c(c(O)c(=O)n2[C@@]12CC[C@H]1C[C@H]12)C(=O)N(Cc1ccc(F)c(Cl)c1)CC3` [Compound 11], the IC50 is 71 nM.

Consider `CSCC12CC1CCC21NC(=O)c2c3c(c(O)c(=O)n21)C(=O)N(Cc1ccc(F)c(Cl)c1)CC3` (stereo not shown) [Compound 16], for which the IC50 is 20 nM.

With `CN1C(=O)c2c3c(c(O)c(=O)n2[C@]12CC[C@@H]1C[C@@]12COP(=O)(O)O)C(=O)N(Cc1ccc(F)c(Cl)c1)CC3` (single isomer, unassigned) [Compound 19], the IC50 was determined as 2090 nM.

`C[C@@H](O)CN1C(=O)c2c3c(c(O)c(=O)n2[C@@]12CC[C@H]1C[C@H]12)C(=O)N(Cc1ccc(F)c(Cl)c1)CC3` (single isomer, unassigned) [Compound 2]: the IC50 is 33 nM.

For `CN1C(=O)c2c3c(c(O)c(=O)n2[C@@]12CC[C@@H]1C[C@@]12CO)C(=O)N(Cc1ccc(F)c(Cl)c1)CC3` [Compound 14], the IC50 was 14 nM.

Consider `CC(C)C[C@H](N)C(=O)O[C@@H](C)CN1C(=O)c2c3c(c(O)c(=O)n2[C@@]12CC[C@H]1C[C@H]12)C(=O)N(Cc1ccc(F)c(Cl)c1)CC3` [Compound 10], for which the IC50 worked out at 49 nM.

Turning to `C[C@@H](CN1C(=O)c2c3c(c(O)c(=O)n2[C@@]12CC[C@H]1C[C@H]12)C(=O)N(Cc1ccc(F)c(Cl)c1)CC3)OP(=O)(O)O` [Compound 1], the IC50 came out at 1200 nM.

On to `C[C@H](O)CN1C(=O)c2c3c(c(O)c(=O)n2[C@@]12CC[C@H]1C[C@H]12)C(=O)N(Cc1ccc(F)c(Cl)c1)CC3` (single isomer, unassigned) [Compound 6], for which the IC50 was 53 nM.

As for `C[C@@H](CN1C(=O)c2c3c(c(O)c(=O)n2[C@@]12CC[C@H]1C[C@H]12)C(=O)N(Cc1ccc(F)c(Cl)c1)CC3)OC(=O)[C@@H](N)CCCCN` [Compound 8], the IC50 turned out to be 46 nM.

With `C[C@H](N)C(=O)O[C@@H](C)CN1C(=O)c2c3c(c(O)c(=O)n2[C@@]12CC[C@H]1C[C@H]12)C(=O)N(Cc1ccc(F)c(Cl)c1)CC3` [Compound 9], the IC50 came to 42 nM.

With `CN1C(=O)c2c3c(c(O)c(=O)n2[C@]12CC[C@@H]1C[C@@]12CO)C(=O)N(Cc1ccc(F)c(Cl)c1)CC3` [Compound 15], the IC50 came to 24 nM.

As for `C[C@H](CN1C(=O)c2c3c(c(O)c(=O)n2[C@@]12CC[C@H]1C[C@H]12)C(=O)N(Cc1ccc(F)c(Cl)c1)CC3)OP(=O)(O)O` [Compound 7], the IC50 was determined as 1090 nM.

As to `CS(=O)(=O)CC12CC1CCC21NC(=O)c2c3c(c(O)c(=O)n21)C(=O)N(Cc1ccc(F)c(Cl)c1)CC3` (stereo not shown) [Compound 18], the IC50 was 37 nM.
